The source of these data is patent publication EP0347802B1, “Neurokinin A antagonists” (MERRELL DOW PHARMACEUTICALS INC., priority 1988, dated 1989).

Residues, ends and D or L forms follow the SMILES beside them.

One experiment relates to hamster urinary bladder. Description: Hamster urinary bladder contraction preparation. The conditions noted are these: for effect on NKA-mediated contractile activity: NKA with 10 »M of test compound, one experiment in triplicate; for contraction produced by test compound alone: up to concentrations of 1 »M, three separate hamster bladder tissues each, thiorphan 10 »M. Also noted: species or system male golden Syrian hamsters. From the text: The abscissa (x-axis) logarithmically indicates the concentration in nanomoles of agonist or antagonist of the neurokinin A (NKA) receptor. The ordinate (y-axis) indicates the observed specific binding for each tested agonist or antagonist measured as a percentage of maximum specific binding. [formula] Agonists tested were NKA and fragments of NKA consisting of the third to tenth (NKA(3-10)) amino acids and the fourth to tenth (NKA(4-10)) amino acids. Values are MEAN ± S.E.M. of 6 - 12 experiments. […] The abscissa (x-axis) logarithmically indicates the concentration in nanomolar (nM) of agonist or antagonist of the NKA receptor. […] The abscissa (x-axis) logarithmically indicates the concentration in nanomolar (nM) of agonist or antagonist of the NKA receptor. […] H-Asp-Ser-Phe-Val-Gly-Leuψ[CH₂N(CH₃)]Leu-NH₂ up to 100»M had only 5% partial agonist activity, and H-Asp-Ser-Phe-Val-Gly-Leuψ[CH₂NH]Leu-NH₂ had only 12% partial agonist activity. […] The abscissa (x-axis) logarithmically indicates the concentration in nanomolar (nM) of NKA or NKA with 10 »M of H-Asp-Ser-Phe-Val-Gly-Leuψ[CH₂NH]Leu-NH₂. […] The abscissa (x-axis) logarithmically indicates the concentration in nanomolar (nM) of NKA or NKA with 10 »M of H-Asp-Ser-Phe-Val-Gly-Leuψ[CH₂N(CH₃)]Leu-NH₂. Values are MEAN ± S.E.M. from one experiment in triplicate.
Half-strips of urinary bladders from male golden Syrian hamsters (75 - 100 g) were suspended in Tyrode's buffer at 31°C and with 1 gram resting tension as described by Dion et al. (Life Sciences 41: 2269 - 2278, 1987). The enkephalinase inhibitor thiorphan was added to the buffer at 10 »M 15 minutes prior to each test compound addition. Cumulative NKA dose-response curves were constructed first in the absence and then in the presence of test compound. The test compounds were added cumulatively as well to ascertain whether or not they had any contractile effects themselves. Any test compound effect that was observed was allowed to plateau before the next cumulative concentration was added. Under these conditions, the EC₅₀ for NKA contractile effects was generally 10 nM, in good agreement with literature values. Contractile data are expressed as grams of tension developed over and above the resting tension. […] Figures 4 and 5 illustrate the contractile force as a function of NKA concentration in the absence and presence of test compound.

In the next experiment the target is T1, NKA receptor (Mesocricetus auratus, UniProt P51144).
T1 construct: from tissue; host or cells: hamster urinary bladder, chopped tissue
T1 sequence (P51144 1-384): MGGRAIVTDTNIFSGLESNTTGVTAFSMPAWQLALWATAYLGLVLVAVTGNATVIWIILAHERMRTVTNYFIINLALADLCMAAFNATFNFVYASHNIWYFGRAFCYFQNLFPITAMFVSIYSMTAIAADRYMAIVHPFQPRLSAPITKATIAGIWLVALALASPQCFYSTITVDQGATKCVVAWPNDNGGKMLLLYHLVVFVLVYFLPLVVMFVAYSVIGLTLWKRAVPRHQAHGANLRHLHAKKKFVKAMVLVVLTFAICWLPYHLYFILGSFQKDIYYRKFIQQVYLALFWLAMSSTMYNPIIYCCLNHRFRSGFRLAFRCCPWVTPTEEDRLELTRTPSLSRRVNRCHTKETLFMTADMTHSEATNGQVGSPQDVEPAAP
Description: Neurokinin A-induced phosphatidylinositol (PI) turnover in hamster urinary bladder. Format: cell-based. The settings on record: for shift of NKA dose-response curve (PI turnover): one experiment in triplicate; for partial agonist activity: test compound alone. The text has this: The abscissa (x-axis) logarithmically indicates the concentration in nanomoles of agonist or antagonist of the neurokinin A (NKA) receptor. […] The abscissa (x-axis) logarithmically indicates the concentration in nanomolar (nM) of agonist or antagonist of the NKA receptor. […] The abscissa (x-axis) logarithmically indicates the concentration in nanomolar (nM) of agonist or antagonist of the NKA receptor. […])]Leu-NH2 up to 100»M had only 5% partial agonist activity, and […] had only 12% partial agonist activity. […] Values are MEAN ± S.E.M. from one experiment in triplicate. Urinary bladders from several hamsters were pooled and chopped at 350 »m with a tissue chopper. The chopped tissue was then incubated in 37°C Krebs-Hepes buffer with fresh buffer changes every 15 minutes for 30 minutes. The tissue was then incubated in this buffer containing 100-200 »Ci of 3H-inositol at 37°C. The tissue was then washed and incubated for another 30 minutes in Krebs-Hepes (containing 10 mM Li+) at 37°C with fresh buffer change every 15 minutes. Portions of the tissue mass (approximately 10-20 mg per assay tube) were then placed in Li+ buffer, test compound was then added in 25 »l, and then various concentrations of neurokinin A were added in 25 »l in a final volume of 250 »l. […] Test compound was also evaluated alone at the indicated concentrations to test for agonist activity. After 30 minutes at room temperature, the phosphatidylinositol turnover was terminated by the addition of 940 »l chloroform:methanol (1:2), followed by 310 »l chloroform, followed by 310 »l water. Each tube was then vortexed for 15 seconds and then centrifuged at 3000 rpm for 10 minutes to separate the phases. 900 »l of the top (aqueous) phase was then loaded onto a 0.5 ml Biorad AG-1X8 (formate) ion exchange column. 50 »l of the bottom phase (chloroform) was withdrawn from each tube and placed in a counting vial, dried, and counted in scintillation fluid. The material on the columns was washed in order with: • 1) 10 ml of water • 2) 5 ml of 5 mM disodium tetraborate/60 mM sodium formate • 3) 10 ml of 1 M ammonium formate in 0.1 M formic acid The final (third) wash was collected and one ml was mixed with 6 ml of ACS scintillant and counted. The ratio of these counts (total inositol phosphates) to the corresponding organic phase counts was then calculated for each sample. The ratios in the presence of test compound and/or standards were then compared to the ratios for control tubes (i.e., no stimulating agonist). Dose-response curves were constructed and the abilities of test compounds to stimulate or to inhibit neurokinin A-induced phosphatidylinositol turnover were determined by graphical analysis or with the aid of a computer program and are illustrated in Figures 2 and 3.

`CC(C)C[C@@H](CN(C)[C@@H](CC(C)C)C(N)=O)NC(=O)CNC(=O)[C@@H](NC(=O)[C@H](Cc1ccccc1)NC(=O)[C@H](CO)NC(=O)[C@@H](N)CC(=O)O)C(C)C` [H-Asp-Ser-Phe-Val-Gly-Leuψ[CH₂N(CH₃)]Leu-NH₂] (HELM PEPTIDE1{D.S.F.V.G.[CC(C)C[C@@H](CN(C)[C@@H](CC(C)C)C(N)=O)N[*:1]]}$$$$V2.0): in the experiment on hamster urinary bladder, the “effect on NKA-mediated contractile activity” value is recorded as “antagonistic effect” and the “contraction produced by test compound alone” value is given as “did not produce any contraction”. In addition, on NKA receptor (1, 10 and 100 »M test compound), the “shift of NKA dose-response curve (PI turnover)” value was “significant rightward shift of NKA dose-response curve in competitive manner”. Further, the Kb at NKA receptor (Schild plot of NKA dose-response shifts at 1, 10 and 100 »M, read-out: pA2 (converted)) is 21.9 nM. In addition, the “slope of the Schild plot” value on NKA receptor (from NKA dose-response shifts at 1, 10 and 100 »M) is listed as “-.99”. The same compound displayed a partial agonist activity on NKA receptor (up to 100»M) of 5%.
On to `CC(C)C[C@@H](CN[C@@H](CC(C)C)C(N)=O)NC(=O)CNC(=O)[C@@H](NC(=O)[C@H](Cc1ccccc1)NC(=O)[C@H](CO)NC(=O)[C@@H](N)CC(=O)O)C(C)C` [H-Asp-Ser-Phe-Val-Gly-Leuψ[CH₂NH]Leu-NH₂] (HELM PEPTIDE1{D.S.F.V.G.[CC(C)C[C@@H](CN[C@@H](CC(C)C)C(N)=O)N[*:1]]}$$$$V2.0), for which, in the experiment with hamster urinary bladder, the “effect on NKA-mediated contractile activity” value was “antagonistic effect” and the “contraction produced by test compound alone” value was “did not produce any contraction”. Also, on NKA receptor (10 »M test compound), the “shift of NKA dose-response curve (PI turnover)” value is recorded as “significant rightward shift of NKA dose-response curve in competitive manner”. The same compound registered a partial agonist activity on NKA receptor of 12%.
